Reference: patent US20090170788A1, “NOVEL USE OF 1, 2, 3, 4, 6-PENTA-O-GALLOYL-BETA-D-GLUCOSE” (priority 2006, published 2009)

Tests used:
[1] = system: albino SKH-1 hairless mice; experiment: Wrinkle formation caused by UV light in hairless mouse model (skin photographs, skin replica); assay type: in vivo; conditions: UV B 10 weeks, topical 10 mg/200 μl/4 cm^2 starting from 4 weeks after UV irradiation
Source text: Whether 1,2,3,4,6-penta-O-galloyl-beta-D-glucose has the effect of inhibiting wrinkle formation caused by UV light was examined. First, 7-week-old female hairless mice (albino SKH-1 hairless mice, Hanlim Experimental Animal Co., Suwon, Korea) were divided into the following three groups, each consisting of 10 animals.
(§1) The mice of each of the groups were put in an UV box equipped with an UV B lamp, and were irradiated with UV light at a dose of 100 mJ/cm^2 corresponding to minimal erythemal dose (MED). UV light was irradiated one time a day, three times a week for 4 weeks while increasing the dose of UV light from 100 mJ/cm^2 at the first week to 200 mJ/cm^2 at the second week, 300 mJ/cm^2 at the third week and 400 mJ/cm^2 at the fourth week so as to adapt the mice to UV light. Following the fourth week, the mice were irradiated with UV light at a dose of 400 mJ/cm^2 for 6 weeks, and thus the hairless mice were exposed to UV light for a total of 10 weeks, thereby inducing skin photoaging. (Kilgman L H, Clin Dermatol 14:183-195, 1996). In the case of the test group, starting from 4 weeks after UV irradiation, a composition containing 1,2,3,4,6-penta-O-galloyl-beta-D-glucose was dissolved in a propylene glycol solution containing 30% ethanol (7:3 [v/v] propylene glycol:ethanol) and applied to the skin of the mice in an amount of 10 mg/200 μl/4 cm^2. […]

[2] = system: albino SKH-1 hairless mice; experiment: Epidermal thickening induced by UV light in hairless mouse model (H&E staining); assay type: in vivo; conditions: UV B 10 weeks, topical 10 mg/200 μl/4 cm^2
Source text: as §1, with “cm^2. In the case of the group treated with UV light alone, a composition containing no 1,2,3,4,6-penta-O-galloyl-beta-D-glucose was applied to the mice in an amount of 200 μl/4 cm^2 in the same manner as the test group.” for “cm^2.”

[3] = system: MMP-1; experiment: MMP-1 expression in skin of UV-irradiated hairless mice (immunohistochemistry); assay type: in vivo, mouse; conditions: UV B 10 weeks, topical 10 mg/200 μl/4 cm^2
Source text: as §1, with “cm^2. In the case of the group treated with UV light alone, a composition containing no 1,2,3,4,6-penta-O-galloyl-beta-D-glucose was applied to the mice in an amount of 200 μl/4 cm^2 in the same manner as the test group.” for “cm^2.”

[4] = system: COX-2; experiment: COX-2 protein expression (Western blot) in UV B-irradiated human keratinocytes (HaCaT); assay type: cell-based; conditions: HaCaT cells, UV B 10 mJ/cm^2, 1, 10, 30, 50 μM, 12 hours
Description: Human keratinocytes (HaCaT cell) provided by professor N. Fusenig (German Cancer Research, Germany) were seeded into a 100 mm culture dish to 1.3×10^6 cells, and then cultured in a DMEM medium containing 10% fetal bovine serum for 24 hours. After the culture, the cells were washed three times with phosphate buffered saline, and then irradiated with UV B in the following manner in order to induce skin aging. UV B was irradiated using an UV B lamp to a total energy dose of 10 mJ/cm^2 at a rate of 0.6 mW/cm^2/sec. Just after the UV irradiation, the cells were washed again with phosphate buffered saline, and 1,2,3,4,6-penta-O-galloyl-beta-D-glucose was added to a DMEM medium containing no fetal bovine serum at concentrations of 1, 10, 30, 50 μM. Then, the cells were further cultured in the medium for 12 hours. Test groups were divided as follows: After the 12-hr culture, the cells were washed with cold phosphate buffered saline, and then treated with lysis buffer to separate a cell protein. Then, the cell protein was subjected to Western blot analysis using a COX-2 antibody (Santa Cruz Biotch., USA) and a horseradish peroxidase-conjugated secondary antibody (ZYMED Laboratories, USA). As a loading control group, […] was used.

[5] = system: albino SKH-1 hairless mice; experiment: Collagen formation/degradation after UV light in hairless mouse model (masson trichome staining); assay type: in vivo; conditions: UV B 10 weeks, topical 10 mg/200 μl/4 cm^2
Source text: as §1, with “cm^2. In the case of the group treated with UV light alone, a composition containing no 1,2,3,4,6-penta-O-galloyl-beta-D-glucose was applied to the mice in an amount of 200 μl/4 cm^2 in the same manner as the test group.” for “cm^2.”

[6] = system: MMP-1; experiment: MMP-1 expression (ELISA) in UV-irradiated human normal dermal fibroblasts; assay type: cell-based
Description: (§2) Human normal dermal fibroblasts, which were isolated and cultured from the skin dermal layer cut from infant phimosis, were seeded into a 6-well plate at a density of 1×10^5 cells/well, and then cultured in 10% fetal bovine serum-containing DMEM (Dulbecco's modified Eagle's medium) for 24 hours. After the culture, the cells were washed three times with phosphate buffered saline (PBS) and then irradiated with UV A and […] in the following manner in order to induce skin aging. UV A was irradiated using a UV A lamp (Sankyo Denki FL8BL lamp, Sankyo Denki Co., Japan) to a total energy dose of 50 mJ/cm^2 at a rate of 27 mW/cm^2/sec, and UV B was irradiated using a UV B lamp (Sankyo Denki G9T5E lamp, Sankyo Denki Co., Japan) to a total energy dose of 170 mJ/cm^2 at a rate of 1.15 mW/cm^2/sec. […] In order to examine if the skin was aged after the culture, the expression levels of skin intercellular matrix component type I procollagen and its degradation enzyme MMP-1 were measured using a type I procollagen ELISA kit (Procollagen Type I C-Peptide EIA kit, TaKaRa, Japan) and a MMP-1 ELISA kit (MMP-1 human, ELISA system, Biotrak Assay, Amersham Biosciences, USA) according to manufacturer's protocols. […]

[7] = system: type I procollagen; experiment: Type I procollagen expression in skin of UV-irradiated hairless mice (immunohistochemistry); assay type: in vivo, mouse; conditions: UV B 10 weeks, topical 10 mg/200 μl/4 cm^2
Source text: as §1, with “cm^2. In the case of the group treated with UV light alone, a composition containing no 1,2,3,4,6-penta-O-galloyl-beta-D-glucose was applied to the mice in an amount of 200 μl/4 cm^2 in the same manner as the test group.” for “cm^2.”

[8] = system: type I procollagen; experiment: Type I procollagen expression (ELISA) in UV-irradiated human normal dermal fibroblasts; assay type: cell-based
Description: as §2

[9] = human normal dermal fibroblasts, UV A 50 mJ/cm^2 or UV B 170 mJ/cm^2, 1 and 10 μg/ml, 24 hours, concentration-dependent, vs UV light alone
[10] = in vitro, UV-irradiated human skin fibroblasts, comparison with EGCG control group

## O=C(OC[C@H]1O[C@@H](OC(=O)c2cc(O)c(O)c(O)c2)[C@H](OC(=O)c2cc(O)c(O)c(O)c2)[C@@H](OC(=O)c2cc(O)c(O)c(O)c2)[C@@H]1OC(=O)c1cc(O)c(O)c(O)c1)c1cc(O)c(O)c(O)c1 [1,2,3,4,6-penta-O-galloyl-beta-D-glucose]
[1]
  frequency of wrinkle formation: reduced the frequency of wrinkle formation
[2]
  thickening of the skin epidermal layer: the thickening of the skin epidermal layer was significantly decreased
[3]
  expression of MMP-1 in skin tissue: this increase in expression was inhibited
[4]
  expression of COX-2: reduced the expression of COX-2 in a concentration-dependent manner
[5]
  amount of collagen: the amount of collagen was increased compared to the group treated with UV light alone
  amount of damaged collagen: the amount of damaged collagen was decreased
[6]; [9]
  expression of MMP-1: a decrease in the expression of MMP-1
[6]; [10]
  inhibitory effect on MMP-1 compared to EGCG: much more superior to the MMP-1 inhibitory effect of EGCG
[7]
  expression of type I procollagen in skin tissue: the expression of type I procollagen was increased compared to the group treated with UV light alone
[8]; [9]
  expression of type I procollagen: an increase in the expression of type I procollagen
[8]; [10]
  expression of type I procollagen compared to EGCG: marked increase in the expression of type I procollagen compared to the case of treatment with EGCG
